Measured values published in patent US20230355605A1, “DRUG FOR ENHANCING FIBRINOLYTIC SYSTEM, AND USE THEREFOR” (priority 2020, published 2023).

Columns and labels:
male Crl:CD(SD) rats = test: Effect on central nervous system (functional observational battery); assay type: in vivo, rat; conditions: single oral dose, up to 300 mg/kg
Experimental: The effect of the present compound on the central nervous system was examined by the functional observational battery (FOB) in rats, using male Crl:CD(SD) rats. Specifically, the present compound was orally administered to the rats in a single dose, and the rats were observed before administration and 0.5, 1, 2, 4, 8, and 24 hours after administration. To a control group (six rats), a 0.5 w/v% carmellose sodium aqueous solution (vehicle) was administered instead of the present compound in the same manner. […] Thus, it was considered that the present compound has no effect on the central nervous system up to a dosage of 300 mg/kg in single oral dose administration using rats.

[1] = tested on: chronic-phase chronic myeloid leukemia (CML) patients; test: Phase II study in combination with TKI in chronic-phase CML patients (4 weeks); assay type: in vivo, human
Text: The present compound and a tyrosine kinase inhibitor (hereinafter referred to as “TKI”) were used in combination and repeatedly administered orally to patients with chronic-phase chronic myeloid leukemia (CML patients) to evaluate the safety of the present compound and the effectiveness of the present compound against CML.
Oral administration of the TKI, which is a drug used in combination, was continued for a total of 12 weeks, including the 8-week observation period. The safety analysis set (SAS) and the full analysis set (FAS) each consisted of the 21 patients, and the per protocol set (PPS) consisted of 18 patients.

[2] = human, in vivo
Experimental: A placebo-controlled repeated oral dose study was performed to examine the safety, pharmacokinetics, and pharmacodynamics of the present compound during repeated oral dose administration in healthy Japanese adult males (subjects).
The oral dosages were 60 mg (step 1) and 120 mg (step 2) per day, and the number of subjects per step was 9 (6 subjects in the present compound group and 3 subjects in the placebo group). The transition from one step to the next was made after confirming safety. The present compound or the placebo was orally administered once daily after breakfast for 7 days.
After administration of the present compound and the placebo, the following items were evaluated in each subject. Safety: vital signs (axillary temperature, blood pressure while seated, and pulse rate while seated), 12-lead electrocardiogram, laboratory tests (hematological test, blood biochemical test, blood coagulation test, urinalysis, and fecal test), and adverse events • Pharmacokinetics: plasma concentration of the unchanged drug and metabolite concentration • Pharmacological activities: PAI-1 activity and t-PA activity

[3] = design: species or system human; conditions: in vivo, po
Experimental: A placebo-controlled single oral dose study was performed to examine the safety and pharmacokinetics upon single oral dose administration of the present compound in healthy Japanese adult males (subjects).
The oral dosages were 30 mg (step 1), 60 mg (step 2), 120 mg (step 3), and 240 mg (step 5) per day, and the food effect was separately examined in administration at a dosage of 60 mg (step 4) (a total of five steps). In steps 1 to 3 and 5, the number of subjects per step was 8 (6 subjects in the present compound administration group and 2 subjects in the placebo group), of which 1 subject of the present compound administration group and 1 subject of the placebo group were used as the preceding group, and 5 subjects of the present compound administration group and 1 subject of the placebo group were used as the following group. The study proceeds to the following group after confirming safety in the preceding group. The transition from one step to the next was made after confirming safety. In step 4, which examines the food effect, the present compound was orally administered to all 6 subjects. […]
After administration of the present compound and the placebo, the following items were evaluated in each subject. […]

## O=C(Nc1ccc(Cl)cc1C(=O)[O-])c1cccc(-c2cccc3cccnc23)c1.[Na+] [present compound, sodium 5-chloro-2-({ [3-(quinolin-8-yl)phenyl]carbonyl}amino)benzoate]
Male Crl:CD(SD) rats
  effect on the central nervous system: no effect
[1]; 120 mg once daily 4 weeks in combination with TKI
  cumulative DMR achievement rate (MR 4.5, BCR-ABL^IS≤0.0032%): increased
[1]; 120 mg once daily 4 weeks with TKI, 21 patients (SAS)
  adverse events causally related to the investigational drug: No adverse events
[2]
  AUC on day 7 compared with day 1: increased
  Tmax, t½ 0-24h, and Cmax′: not affected by repeated administration
[3]
  AUC versus dosage: linearity
